Source: article PMC5913645, “Methyl phenlactonoates are efficient strigolactone analogs with simple structure” (Journal of Experimental Botany, 2017)
“Also recorded” adds a separate entry of the source.

How the values were obtained:
[1] = tested on: P. ramosa seeds; assay: P. ramosa seed germination bioassay; assay type: in vivo, Phelipanche ramosa; details: 1.0 μM
Procedure: Parasitic weed seeds’ (S. hermonthica and P. ramosa) germination activity was studied as described previously ([Jamil et al., 2012]). Six pre-conditioned seed discs were placed in a 90 mm Petri dish containing a filter paper ring wetted with 0.9 ml sterile MilliQ water. Then 50 μl of SL analog solution (10^–5–10^–12 M) was applied on each of the six discs, for each concentration. GR24 solutions with equal concentrations and sterile MilliQ water were included as a positive and negative control, respectively. After application, seeds of S. hermonthica and P. ramosa were incubated in dark at 30 °C for 2 d and at 25 °C for 4 d, respectively. Germination (seeds with radicle emerging through the seed coat) was scored under a binocular microscope, and germination rate (%) was calculated.

[2] = tested on: artificially infested soil and pearl millet as a host; assay: Trial in Burkina Faso, boxes with artificially infested soil; assay type: in vivo; details: 1 × 1 m^2 wooden boxes, to be published
From the text: This activity was around 17 times weaker than that of GR24, pointing to MP1 as a suitable candidate for the suicidal germination approach. Very recently, we have evaluated the activity of MP1 in a trial conducted in Burkina Faso, in which we used 1 × 1 m^2 wooden boxes filled with artificially infested soil and pearl millet as a host. […] Apart from these three compounds, we observed lower germination activity with P. ramosa seeds than with those of S. hermonthica.

Structure (SMILES): COC(=O)/C(=C/OC1C=C(C)C(=O)O1)c1ccc([N+](=O)[O-])cc1 (centres unmarked) [MP1, (E)-methyl 3-(4-methyl-5-oxo-2,5-dihydrofuran-2-yloxy)-2-(4-nitrophenyl)acrylate]
- P. ramosa germination activity [1]: much higher activity; also recorded: quite similar to that of GR24
- germination activity in soil box trial [2]: significantly higher germination activity than GR24
